Data published in ChEMBL document CHEMBL1221242, “Design and synthesis of HCV agents with sequential triple inhibitory potentials” (2010).

Legend:
Hepatitis C virus [1] = test: Antiviral activity against HCV infected in human BB7 cells assessed as inhibition of viral replication after 3 days relative to HCV-796; type: functional, Hepacivirus hominis
Hepatitis C virus [2] = test: Inhibition of HCV 1b NS5B Cdelta21 polymerase expressed in Escherichia coli assessed as inhibition of [alpha-33P]GTP incorporation into RNA relative to HCV-796; set-up: species or system Hepatitis C virus subtype 1b
Hepacivirus hominis = test: Ratio of inhibition of HCV 1b NS5B Cdelta21 polymerase to inhibition of HCV relative to HCV-796

Row | Compound | Ratio (Hepatitis C virus [1]) | Ratio (Hepatitis C virus [2]) | Ratio (Hepacivirus hominis)
1 | CNC(=O)c1c(-c2ccc(F)cc2)oc2cc(N(CCOP(=O)(O)OC[C@H]3O[C@@H](n4cnc(C(N)=O)n4)[C@@H]4OC(C)(C)O[C@@H]43)S(C)(=O)=O)c(C3CC3)cc12 | 18.6 | 11.8 | 1.57
2 | CNC(=O)c1c(-c2ccc(F)cc2)oc2cc(N(CCOP(=O)(O)OC[C@H]3O[C@@H](n4cnc(C(N)=O)n4)[C@H](O)[C@@H]3O)S(C)(=O)=O)c(C3CC3)cc12 | 7.3 | 6.2 | 1.18
3 | CNC(=O)c1c(-c2ccc(F)cc2)oc2cc(N(CCO)S(C)(=O)=O)c(C3CC3)cc12 [NESBUVIR] | 1 | 1 | 1
4 | CNC(=O)c1c(-c2ccc(F)cc2)oc2cc(N(CCOC(=O)CCC(=O)OC[C@H]3O[C@@H](n4cnc(C(N)=O)n4)[C@@H]4OC(C)(C)O[C@@H]43)S(C)(=O)=O)c(C3CC3)cc12 | 13 | 42 | 0.31
5 | CNC(=O)c1c(-c2ccc(F)cc2)oc2cc(N(CCOP(=O)(O)O)S(C)(=O)=O)c(C3CC3)cc12 | 8.9 | 0.4 | 22.2
6 | CNC(=O)c1c(-c2ccc(F)cc2)oc2cc(N(CCOC(=O)CCC(=O)OC[C@H]3O[C@@H](n4cnc(C(N)=O)n4)[C@H](O)[C@@H]3O)S(C)(=O)=O)c(C3CC3)cc12 | 6.2 | 22 | 0.28
